The text below walks through data of patent US20130158112A1, “COMPOSITIONS AND METHODS FOR INHIBITING BETA AMYLOID SECRETION” (priority 2011, published 2013).

“Also recorded” adds a separate entry of the source. Like-named read-outs stand apart in the source and are kept apart here.

The subject of data set [1] is THLE-3 human hepatoma cells. As to the kind of experiment: Drug activity persistence after incubation with THLE-3 hepatoma cells. In kind it is in vitro ADME. As to conditions: Homo sapiens, THLE3, 24 h.
The next data set has as its system H4βAPP695 wt cells. In words: Cytotoxicity by total cell protein content (BCA) of H4βAPP695 wt cells. To be noted: 10 μM.
Data set [2] relates to α-secretase. As to the kind of experiment: α-Secretase activity, compound added directly to cell lysates. In kind it is biochemical, human. As to conditions: added to lysates rather than live cells. How it is done: (§1) H4βAPP695 wt were treated with vehicle or 1 for 24 h, washed with ice cold PBS, and lysed in extraction buffer provided with the α-secretase assay kit (R&D Systems) for 10 min on ice and centrifuged at 10000 g for 1 min to remove nuclei. Protein content of the supernatant was determined by the BCA assay, and 50 μg of lysate protein were added to wells of a 96-well assay plate and the volume was adjusted to 100 μL using the lysis buffer. 100 μL of reaction buffer and 10 μL of the fluorogenic substrate were added, and the plates were incubated at 37° C. in the dark with gentle agitation for 2 h. Activity was detected in a fluorescence plate reader using an excitation of 355 nm and an emission of 510 nm after subtraction of fluorescence in the absence of cell lysate.
(§2) We measured the activity of α-secretase using a fluorogenic peptide substrate in lysates of H4βAPP695 wt cells. […] However, addition of compound 1 directly to the cell lysates, rather than to the live cells, had no effect on α-secretase activity (data not shown), implying an indirect cellular activation of this pathway rather than direct activation of the α-secretase protease by compound 1.

Data set [3] deals with APP. As to the kind of experiment: Western blot of APP processing products (sAPPα, sAPPβ, holoAPP, αCTF) in H4βAPP695 wt cells. As to conditions: 10 μM, 24 h. Format: cell-based, human. The method, then:
The alternate processing of holoAPP by either the β-secretase (a precursor to Aβ production) or α-secretase (which clips in the middle of the Aβ region) is shown in FIG. 2A. Compound 1 induced decrease in total Aβ secretion may be due to its effect on APP processing or due to decreased production of its precursor APP. To probe its mechanism, H4βAPP695 wt cells were treated with 10 μM 1 for 24 h. Using Western blot assays, we measured secreted APPα (sAPPα) and APPβ (sAPPβ) in the conditioned media, and full-length holo-APP and the 83 residue long α-C-terminal fragment (α-CTF) in cell lysate. […] Thus, 1 appears to decrease Aβ secretion by activating the α-secretase pathway, a favorable pathway as the large secreted sAPPα protein is reported to have neurotrophic and neuroprotective activities.
(In general: In western blotting, separated proteins are transferred to a membrane and probed.)

Another data set relates to ADAM9. In words: Western blot of pro and active ADAM9 in H4βAPP695 wt cells. In kind it is cell-based, human. As to conditions: 24 h. How it is done:
(§3) Several members of the ADAM (a disintegrin and metalloproteinase) family, ADAM9, ADAM10, and ADAM17, have been reported to have α-secretase activity. […] Using antibodies specific for these three ADAM proteases, we assessed the levels of the pro and active forms in cells cultured with increasing concentrations of compound 1. […] At the 10 μM dose of compound 1, we observed a 31% increase in the ratio of active/pro ADAM9 (p<0.05), N=3 each control and compound 1) and a 42% increase in the ratio active/pro ADAM10 (p<0.05). Although the direct target for compound 1 has not been identified, it seems likely that its mechanism is via the increased ADAM 9 and ADAM10 processing into active α-secretase, which cleaves APP in a manner that precludes Aβ production.

Data set [4] deals with Aβ secretion. As to the kind of experiment: Secreted total Aβ ELISA in conditioned media of H4βAPP695 wt cells. In kind it is cell-based, human. To be noted: H4βAPP695 wt cells. The essentials:
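H4 […] cells stably expressing wild-type βAPP695 (CMV promoter), serum-starved 24 h, then exposed to drug in DMSO or vehicle for 24 h before Aβ in conditioned media was measured. Primary cortical neurons came from E18 APPswe/PSEN1dE9 mice on C57BL/6 background.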
A general note: In an ELISA, binding on a coated surface is turned into a signal by an enzyme label.

Data set [5] relates to Aβ secretion. As to the kind of experiment: Secreted Aβ in cultured primary neurons from APP/PS1 transgenic mice. As to conditions: 24 h incubation. In kind it is cell-based, mouse. How it is done: H4βAPP695 wt cells, a human […] cell line stably transfected with a wtβAPP695 expression vector construct under the control of a CMV promoter (kindly provided by Dr. Chris Eckman from Mayo Clinic, Florida) were cultured as previously described. Twenty-four hours before drug treatment, the media was replaced with serum-free media. Cells were then incubated with drugs (dissolved in DMSO) or vehicle for 24 h for collection of conditioned media and cell lysates. For the PKC inhibitors experiment, three inhibitors were treated 30 min prior to drug challenge. Primary cortical neurons were prepared from embryonic day 18 APP and presenilin 1 (APPswe, PSEN1dE9) transgenic mice on the C57BL/6 genetic background (Jackson Laboratories, strain no. 5864) as previously described. THLE-3 human hepatoma cells (from ATCC) were plated in 24-well plates that were precoated with 10 μg/mL bovine serum albumin, 10 μg/mL fibronectin, and 30 μg/mL bovine type I collagen. […] Transepithelial resistance was measured in each well and found to be >160 Ω/cm^2. […] Four hours later, the basal chamber media was harvested and used to measure lucifer yellow fluorescence to confirm monolayer integrity as well as for treatment of H4βAPP695 wt cells for 24 h prior to analysis of secreted Aβ, which was compared to the effect of direct addition of 10 μM of the corresponding drug.

Data set [6] concerns Aβ secretion. In words: PKC inhibitors experiment on Aβ secretion. Format: cell-based, human. The method, then: H4βAPP695 wt cells, a human […] cell line stably transfected with a wtβAPP695 expression vector construct under the control of a CMV promoter (kindly provided by Dr. Chris Eckman from Mayo Clinic, Florida) were cultured as previously described. Twenty-four hours before drug treatment, the media was replaced with serum-free media. Cells were then incubated with drugs (dissolved in DMSO) or vehicle for 24 h for collection of conditioned media and cell lysates. For the PKC inhibitors experiment, three inhibitors were treated 30 min prior to drug challenge. Primary cortical neurons were prepared from embryonic day 18 APP and presenilin 1 (APPswe, PSEN1dE9) transgenic mice on the C57BL/6 genetic background (Jackson Laboratories, strain no. 5864) as previously described. THLE-3 human hepatoma cells (from ATCC) were plated in 24-well plates that were precoated with 10 μg/mL bovine serum albumin, 10 μg/mL fibronectin, and 30 μg/mL bovine type I collagen. The cells were grown in BEGM media (Clonetics) until confluent and treated with drugs at 20 μM for 24 h. This conditioned media was harvested, diluted 1:1 in serum-free medium, and incubated with H4βAPP695 wt cells for 24 h prior to analysis of secreted Aβ, which was compared to the effect of 10 μM drug treatments without prior incubation with the THLE-3 cells. Caco-2 cells (ATCC) were plated in 12-well plates with Transwell inserts (Costar) at 70000 cells per well and grown for 21 days. The media volume of the apical and basal chambers was 0.5 and 1.5 mL, respectively. Transepithelial resistance was measured in each well and found to be >160 Ω/cm^2. Drugs at 40 μM and 20 μg/mL of lucifer yellow were added in serum-free medium to the apical chamber. Four hours later, the basal chamber media was harvested and used to measure lucifer yellow fluorescence to confirm monolayer integrity as well as for treatment of H4βAPP695 wt cells for 24 h prior to analysis of secreted Aβ, which was compared to the effect of direct addition of 10 μM of the corresponding drug.
The tumor promoter phorbal myristate acetate is an activator of protein kinase C (PKC) that has been reported to activate α-secretase activity. Thus, we wanted to determine if protein kinase C inhibitors could block the effect of compound 1 on Aβ secretion.

Data set [7] relates to α-secretase. As to the kind of experiment: α-Secretase activity assay in lysates of treated H4βAPP695 wt cells. In kind it is cell-based, human. The method, then: as §1, §2
The next data set deals with ADAM10. In words: Western blot of pro and active ADAM10 in H4βAPP695 wt cells. To be noted: 24 h. Format: cell-based, human. The method, then:
as §3

For data set [8], the system named is APP. As to the kind of experiment: Western blot of APP processing products (sAPPα, sAPPβ, holoAPP, αCTF) in H4βAPP695 wt cells. In kind it is cell-based, human.

With `O=C(NCCSCc1cccc(Cl)c1)c1c(Cl)cccc1Cl` [Compound 1], in data set [1] (10 μM on H4 cells, without preincubation with hepatoma cells, read-out: hepatoma incubation No total Aβ (% decrease)), the inhibition at 10 µM came out at 69.4%. For the same molecule, the inhibition at 10 µM in [1] (20 μM preincubated 24 h with THLE-3 hepatoma cells, diluted to 10 μM on H4 cells, read-out: hepatoma incubation Yes total Aβ (% decrease)) stood at 34.6%. For the same molecule, in the data set with H4βAPP695 wt cells, the “cytotoxicity, measured by total cell protein content” value was “did not have significant cytotoxicity”. Also, the “α-secretase activity on direct addition to cell lysates” value in the data set with α-secretase [2] is given as “no effect”. For the same molecule, in the data set with APP [3], the “cellular full length (holo) APP level” value is recorded as “without altering holoAPP levels”, the “increase of cellular α-CTF levels” value is listed as “over 2 fold”, the “increase of sAPPα levels” value is on record as “over 3 fold” and the “sAPPα level” value is “caused an increase; also recorded: increased”. In the data set with APP [3], the sAPPβ level result is listed as “without altering” and the “αCTF level” value is “caused an increase; also recorded: increased”. Besides, in the data set with ADAM9 (10 μM), the “increase in the ratio of active/pro ADAM9” value came to 31%. In addition, the “active ADAM9 / processing of ADAM9” value in the data set on ADAM9 (increasing doses) is given as “dose dependent increase; also recorded: promotes cellular processing”. Also, the Aβ lowering activity entry in the data set with Aβ secretion [4] (1 μM) is reported as “displayed Aβ lowering activity at 1 μM”. The “% β Decrease” value with Aβ secretion [4] (10 μM, relative to vehicle treated control cells) was 75.3%. Moreover, the inhibition at 10 µM in the data set with Aβ secretion [4] (Homo sapiens, 24 h, 10 μM, relative to vehicle treated control cells, read-out: % β Decrease) was found to be 75.3 ± 11.6%. Besides, the “secreted Aβ levels in primary neurons” value in the data set with Aβ secretion [5] was “effective in reducing secreted Aβ levels”. Besides, the “effect on Aβ secretion in presence of PKC inhibitors” value with Aβ secretion [6] was “not blocked by PKC inhibitors”. In the data set on α-secretase [7], the “α-secretase activity after treatment of cells” value is given as “induced”. The “increase in α-secretase activity” value in the data set with α-secretase [7] (cells pretreated with 10 μM for 24 h) was 20%. In addition, the “increase in the ratio active/pro ADAM10” value in the data set on ADAM10 (10 μM) was 42%. The “active ADAM10 / processing of ADAM10” value with ADAM10 (increasing doses) was “dose dependent increase; also recorded: promotes cellular processing”. Further, in the data set with APP [8] (10 μM), the “time at which α-CTF increase is first observed” value is reported as 2 h and the “time to maximal α-CTF levels” value is reported as at most 8 h. Besides, in the data set on APP [8] (4 h treatment), the “increase in cellular α-CTF in presence of cyclohexamide” value is reported as “not blocked”.
